Measurements as given in patent USH1923H, “Herbicidal (oxaalkyl) phenyl-substituted heterocycles” (FMC Corporation, priority 1998, dated 2000).

Assays:
soybean [1] = experiment: preemergence herbicidal activity on soybean; assay type: in vivo, Glycine max var. Winchester; details: Glycine max, pre-emergence, 0.3 Kg/Ha, after 12-17 days, read-out: PREEMERGENCE HERBICIDAL ACTIVITY (% CONTROL) SOY
Protocol: (§1) The (oxaalkyl)phenyl-substituted heterocycles of this invention were tested for pre- and postemergence herbicidal activity using a variety of crops and weeds. The test plants included soybean (Glycine max var. Winchester),field corn (Zea mays var. Pioneer 3732), wheat (Triticum aestivum var. Lew), morningglory (Ipomea lacunosa or Ipomea hederacea), […] (Abutilon theophrasti), green foxtail (Setaria viridis), Johnsongrass (Sorghum halepense), blackgrass (Aloepecurus myosuroides), common chickweed (Stellaria media), and common cocklebur (Xanthium strumarium L.).
(§2) For preemergence testing, two disposable fiber flats (8 cm×15 cm×25 cm) for each rate of application of each candidate herbicide were filled to an approximate depth of 6.5 cm with steam-sterilized sandy loam soil. The soil was leveled and impressed with a template to provide five evenly spaced furrows 13 cm long and 0.5 cm deep in each flat. Seeds of soybean, wheat, corn, green foxtail, and johnsongrass were planted in the furrows of the first flat, and seeds of velvetleaf, morningglory, common chickweed, cocklebur, and blackgrass were planted in the furrows of the second flat. The five-row template was employed to firmly press the seeds into place. A topping soil of equal portions of sand and sandy loam soil was placed uniformly on top of each flat to a depth of approximately 0.5 cm. Flats for postemergence testing were prepared in the same manner except that they were planted 9-14 days prior to the preemergence flats and were placed in a greenhouse and watered, thus allowing the seeds to germinate and the foliage to develop.
(§3) In both pre- and postemergence tests, a stock solution of the candidate herbicide was prepared by dissolving 0.27 g of the compound in 20 mL of water/acetone (50/50) containing 0.5% v/v sorbitan monolaurate. For an application rate of 3000 g/ha of herbicide a 10 mL portion of the stock solution was diluted with water/acetone (50/50) to 45 mL.
(§4) The preemergence flats were initially subjected to a light water spray. The four flats were placed two by two along a conveyor belt (i.e., the two preemergence followed by the two postemergence flats). The conveyor belt fed under a spray nozzle mounted about ten inches above the postemergent foliage. The preemergent flats were elevated on the belt so that the soil surface was at the same level below the spray nozzle as the foliage canopy of the postemergent plants. The spray of herbicidal solution was commenced and once stabilized, the flats were passed under the spray at a speed to receive a coverage equivalent of 1000 L/ha. At this coverage the application rates are those shown in the above table for the individual herbicidal solutions. The preemergence flats were watered immediately thereafter, placed in the greenhouse and watered regularly at the soil surface. The postemergence flats were immediately placed in the green-house and not watered until 24 hours after treatment with the test solution. Thereafter they were regularly watered at ground level. After 12-17 days the plants were examined and the phytotoxicity data were recorded.
(§5) Phytotoxicity data were taken as percent control. Percent control was by a method similar to the 0 to 1 00 rating system disclosed in "Research Methods in Weed Science," 2nd ed., B. Truelove, Ed.; Southern Weed Science Society; Auburn University, Auburn, Ala., 1977.

wheat [2] = experiment: preemergence herbicidal activity on wheat; assay type: in vivo, Triticum aestivum var. Lew; details: Triticum aestivum, pre-emergence, 0.3 Kg/Ha, after 12-17 days, read-out: PREEMERGENCE HERBICIDAL ACTIVITY (% CONTROL) WHT
Protocol: as §1, §2, §3, §4, §5

corn [3] = experiment: preemergence herbicidal activity on corn; assay type: in vivo, Zea mays var. Pioneer 3732; details: Zea mays, pre-emergence, 0.3 Kg/Ha, after 12-17 days, read-out: PREEMERGENCE HERBICIDAL ACTIVITY (% CONTROL) CRN
Protocol: as §1, §2, §3, §4, §5

velvetleaf [4] = experiment: preemergence herbicidal activity on velvetleaf; assay type: in vivo; details: Abutilon theophrasti, pre-emergence, 0.3 Kg/Ha, after 12-17 days, read-out: PREEMERGENCE HERBICIDAL ACTIVITY (% CONTROL) ABUTH
Protocol: as §1, §2, §3, §4, §5

morningglory [5] = experiment: preemergence herbicidal activity on morningglory; assay type: in vivo, Ipomea lacunosa or Ipomea hederacea; details: Ipomoea, pre-emergence, 0.3 Kg/Ha, after 12-17 days, read-out: PREEMERGENCE HERBICIDAL ACTIVITY (% CONTROL) IPOSS
Protocol: as §1, §2, §3, §4, §5

chickweed [6] = experiment: preemergence herbicidal activity on chickweed; assay type: in vivo; details: Stellaria media, pre-emergence, 0.3 Kg/Ha, after 12-17 days, read-out: PREEMERGENCE HERBICIDAL ACTIVITY (% CONTROL) STEME
Protocol: as §1, §2, §3, §4, §5

blackgrass [7] = experiment: preemergence herbicidal activity on blackgrass; assay type: in vivo, Aloepecurus myosuroides; details: Alopecurus myosuroides, pre-emergence, 0.3 Kg/Ha, after 12-17 days, read-out: PREEMERGENCE HERBICIDAL ACTIVITY (% CONTROL) ALOMY
Protocol: as §1, §2, §3, §4, §5

green foxtail [8] = experiment: preemergence herbicidal activity on green foxtail; assay type: in vivo; details: Setaria viridis, pre-emergence, 0.3 Kg/Ha, after 12-17 days, read-out: PREEMERGENCE HERBICIDAL ACTIVITY (% CONTROL) SETVI
Protocol: as §1, §2, §3, §4, §5

johnsongrass [9] = experiment: preemergence herbicidal activity on johnsongrass; assay type: in vivo; details: Sorghum halepense, pre-emergence, 0.3 Kg/Ha, after 12-17 days, read-out: PREEMERGENCE HERBICIDAL ACTIVITY (% CONTROL) SORHA
Protocol: as §1, §2, §3, §4, §5

soybean [10] = experiment: postemergence herbicidal activity on soybean; assay type: in vivo, Glycine max var. Winchester; details: Glycine max, post-emergence, 0.3 Kg/Ha, after 12-17 days, read-out: POSTEMERGENCE HERBICIDAL ACTIVITY (% CONTROL) SOY
Protocol: as §1, §2, §3, §4, §5

wheat [11] = experiment: postemergence herbicidal activity on wheat; assay type: in vivo, Triticum aestivum var. Lew; details: Triticum aestivum, post-emergence, 0.3 Kg/Ha, after 12-17 days, read-out: POSTEMERGENCE HERBICIDAL ACTIVITY (% CONTROL) WHT
Protocol: as §1, §2, §3, §4, §5

corn [12] = experiment: postemergence herbicidal activity on corn; assay type: in vivo, Zea mays var. Pioneer 3732; details: Zea mays, post-emergence, 0.3 Kg/Ha, after 12-17 days, read-out: POSTEMERGENCE HERBICIDAL ACTIVITY (% CONTROL) CRN
Protocol: as §1, §2, §3, §4, §5

velvetleaf [13] = experiment: postemergence herbicidal activity on velvetleaf; assay type: in vivo; details: Abutilon theophrasti, post-emergence, 0.3 Kg/Ha, after 12-17 days, read-out: POSTEMERGENCE HERBICIDAL ACTIVITY (% CONTROL) ABUTH
Protocol: as §1, §2, §3, §4, §5

morningglory [14] = experiment: postemergence herbicidal activity on morningglory; assay type: in vivo, Ipomea lacunosa or Ipomea hederacea; details: Ipomoea, post-emergence, 0.3 Kg/Ha, after 12-17 days, read-out: POSTEMERGENCE HERBICIDAL ACTIVITY (% CONTROL) IPOSS
Protocol: as §1, §2, §3, §4, §5

chickweed [15] = experiment: postemergence herbicidal activity on chickweed; assay type: in vivo; details: Stellaria media, post-emergence, 0.3 Kg/Ha, after 12-17 days, read-out: POSTEMERGENCE HERBICIDAL ACTIVITY (% CONTROL) STEME
Protocol: as §1, §2, §3, §4, §5

cocklebur = experiment: postemergence herbicidal activity on cocklebur; assay type: in vivo, Xanthium strumarium L.; details: Xanthium strumarium, post-emergence, 0.3 Kg/Ha, after 12-17 days, read-out: POSTEMERGENCE HERBICIDAL ACTIVITY (% CONTROL) XANPE
Protocol: as §1, §2, §3, §4, §5

blackgrass [16] = experiment: postemergence herbicidal activity on blackgrass; assay type: in vivo, Aloepecurus myosuroides; details: Alopecurus myosuroides, post-emergence, 0.3 Kg/Ha, after 12-17 days, read-out: POSTEMERGENCE HERBICIDAL ACTIVITY (% CONTROL) ALOMY
Protocol: as §1, §2, §3, §4, §5

green foxtail [17] = experiment: postemergence herbicidal activity on green foxtail; assay type: in vivo; details: Setaria viridis, post-emergence, 0.3 Kg/Ha, after 12-17 days, read-out: POSTEMERGENCE HERBICIDAL ACTIVITY (% CONTROL) SETVI
Protocol: as §1, §2, §3, §4, §5

johnsongrass [18] = experiment: postemergence herbicidal activity on johnsongrass; assay type: in vivo; details: Sorghum halepense, post-emergence, 0.3 Kg/Ha, after 12-17 days, read-out: POSTEMERGENCE HERBICIDAL ACTIVITY (% CONTROL) SORHA
Protocol: as §1, §2, §3, §4, §5

Row | Structure (SMILES) | activity at 300 g/ha (soybean [1]) [%] | activity at 300 g/ha (wheat [2]) [%] | activity at 300 g/ha (corn [3]) [%] | activity at 300 g/ha (velvetleaf [4]) [%] | activity at 300 g/ha (morningglory [5]) [%] | activity at 300 g/ha (chickweed [6]) [%] | activity at 300 g/ha (blackgrass [7]) [%] | activity at 300 g/ha (green foxtail [8]) [%] | activity at 300 g/ha (johnsongrass [9]) [%] | activity at 300 g/ha (soybean [10]) [%] | activity at 300 g/ha (wheat [11]) [%] | activity at 300 g/ha (corn [12]) [%] | activity at 300 g/ha (velvetleaf [13]) [%] | activity at 300 g/ha (morningglory [14]) [%] | activity at 300 g/ha (chickweed [15]) [%] | activity at 300 g/ha (cocklebur) [%] | activity at 300 g/ha (blackgrass [16]) [%] | activity at 300 g/ha (green foxtail [17]) [%] | activity at 300 g/ha (johnsongrass [18]) [%]
1 | CCCCCCNC(=O)OCC(Cl)Cc1cc(-n2nc(C)n(C(F)F)c2=O)c(F)cc1Cl (stereo not shown) [Compound 36] | 70 | 30 | 30 | 100 | 100 | 60 | 50 | 100 | 70 | 80 | 30 | 80 | 100 | 100 | 100 | 100 | 50 | 80 | 75
2 | CCNC(=O)OCC(Cl)Cc1cc(-n2nc(C)n(C(F)F)c2=O)c(F)cc1Cl (stereo not shown) [Compound 32] | 100 | 40 | 70 | 100 | 95 | 90 | 75 | 100 | 95 | 95 | 40 | 80 | 100 | 95 | 100 | 100 | 70 | 100 | 90
3 | CNC(=O)OCC(Cl)Cc1cc(-n2nc(C)n(C(F)F)c2=O)c(F)cc1Cl (stereo not shown) [Compound 31, 2-CHLORO-1-[2-CHLORO-4-FLUORO-5-[4DIFLUOROMETHYL-4,5-DIHYDRO-3-METHYL-1,2,4-TRIAZOL-5(1H)-ON-1-YL]PHENYL]PROPAN-3-YL METHYLCARBAMATE] | 100 | 70 | 90 | 100 | 100 | 100 | 70 | 100 | 100 | 95 | 50 | 85 | 100 | 100 | 100 | 100 | 75 | 100 | 100
4 | Cc1nn(-c2cc(CC(Cl)COC(=O)NC(C)(C)C)c(Cl)cc2F)c(=O)n1C(F)F (stereo not shown) [Compound 33] | 60 | 20 | 80 | 100 | 70 | 90 | 70 | 100 | 80 | 90 | 40 | 80 | 100 | 100 | 80 | 100 | 60 | 100 | 80
